The results in this text go back to patent US9592309B2, “Positron emission tomography probe to monitor selected sugar metabolism in vivo” (The Regents of the University of California, priority 2012, dated 2017).

Series [1] deals with T1, 5′ FLAG-tagged human ribokinase (Homo sapiens, UniProt Q9H477).
T1 construct: host or cells: 293T cells, transfected with pMSCV-IRES-YFP (pRBKS); captured with anti-FLAG M2 magnetic beads and eluted with FLAG peptide
In words: Ribokinase assay (kinase reaction with isolated FLAG-tagged ribokinase). In kind it is biochemical. The note with it: 20 minutes at 37° C., 3 mM ATP. The procedure: Human ribokinase plasmid was purchased from OriGene (NM_022128.1). A FLAG sequence was appended 5′ to the ribokinase sequence and the FLAG-tagged ribokinase was subcloned into the retroviral vector pMSCV-IRES-YFP (pRBKS). 293T cells were transfected with the pRBKS vector and Lipofectamine 2000 (Invitrogen) according to manufacturer's protocol. Cells were lysed in RIPA buffer (1% NP-40, 1% Sodium deoxycholate, 0.3% Sodium dodecyl sulfate, […], 1 mM EDTA, 50 mM Tris-HCl pH 6.8). Protein concentration was determined by the BCA Protein Assay Kit (Pierce), and FLAG-tagged ribokinase was captured from 1 mg of lysate with anti-FLAG M2 Magnetic Beads (Sigma) and eluted with 100 μL of FLAG peptide (Sigma), as per the manufacturer's protocol. Cells not transfected with RBKS were lysed as a control.
1 μL of FLAG-tagged ribokinase or control eluent was added to 50 mM Tris-HCl, pH 7.8, 3 mM ATP, 100 mM KCl, 10 mM MgCl2, 1× protease inhibitor cocktail (Roche), and 1 μCi [^3H]-Ribose (Moravek) or [^18F]-FDA in a 10 μL volume. […] In the case of [^3H]-ribose, the samples were dried, placed into scintillation vials, 3 mL of Bio-Safe NA (RPI Corp) was added to each vial, and the samples were measured on a scintillation counter. In the case of [^18F]-FDA, the samples were placed into scintillation vials and counted on a gamma counter. […]

Series [2] in a line: Positron emission tomography / computed tomography imaging of mice. The note with it: for tissues in which the probe selectively accumulates: mice, positron emission tomography. In kind it is in vivo. How it is done:
Positron Emission Tomography, Computed Tomography Imaging. 6-12-week old C57BL/6J female mice and 12-week old female B6.V-Lep^ob/J (Ob/Ob) mice were purchased from the Jackson Laboratory. Animals were anesthetized with 2% isofluorane and injected intravenous in the tail vein with 75-150 μCi of [^18F]-FDA. One hour post-injection, the mice were imaged for 10 minutes on a Siemens Inveon PET scanner and 10 minutes on a MicroCAT II CT system. […] Journal of Digital Imaging 17 (3), 205 (2004)).

The test system of series [3] is enzymes in the pentose phosphate pathway. In words: Enzymes that metabolize 2-fluoro-2-deoxyarabinose in vitro (FIG. 6). In kind it is in vitro ADME.
The subject of series [4] is non-oxidative pentose phosphate pathway. In words: Mass spectrometry analysis of 2-fluoro-2-deoxyarabinose metabolites in mouse organs (MRM LC-MS). In kind it is in vivo. To be noted: mice. The procedure:
Mice (8-12 weeks old) were treated with 25 μL of 500 mM 2-fluoro-2-deoxyarabinose. 1 hour later, the mice were sacrificed and the metabolites from distinct organs were extracted with 3× with 80% MeOH. Extracted metabolites were dried and analyzed by multiple reaction monitoring liquid chromatography-mass spectrometry (MRM LC-MS).

T1 sequence (Q9H477 whole entry): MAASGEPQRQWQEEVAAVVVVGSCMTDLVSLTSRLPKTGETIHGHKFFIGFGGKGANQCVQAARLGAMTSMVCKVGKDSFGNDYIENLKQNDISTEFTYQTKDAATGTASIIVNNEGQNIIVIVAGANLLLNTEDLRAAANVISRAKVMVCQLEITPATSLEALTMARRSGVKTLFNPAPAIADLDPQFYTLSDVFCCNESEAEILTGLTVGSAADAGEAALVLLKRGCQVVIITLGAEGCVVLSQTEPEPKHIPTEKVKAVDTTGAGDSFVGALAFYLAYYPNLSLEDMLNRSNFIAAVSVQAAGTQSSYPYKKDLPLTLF

Regarding [^3H]-Ribose [reference compound], the “phosphorylation by isolated ribokinase” value in series [1] is “phosphorylates”.
For `OC[C@H]1O[C@@H](O)C([18F])C1O` (some centres unmarked) [[^18F]-FDA, [^18F]-2-fluoro-2-deoxyarabinose], the “phosphorylation by isolated ribokinase” value in series [1] is recorded as “phosphorylates”. In addition, in series [2] (12 week old C57Bl/6 female (wild-type) mice, 1 hour, PET/CT), the “localization of probe to the liver” value is “localizing significantly to the liver”. Besides, the “tissues in which the probe selectively accumulates” value in series [2] was “accumulates in organs with high levels of ribokinase”; in series [2] (listed as 18F labelled 2-fluoro-2-deoxyarabinose), “murine liver, kidney and intestinal tissues”. Besides, the “metabolism by enzymes in vitro” value in series [3] is “enzymes in the pentose phosphate pathway metabolize”. Also, the “metabolic pathway and metabolite in vivo” value in series [4] (in vivo) is given as “metabolized in vivo by the non-oxidative pentose phosphate pathway to 4-fluoro-4-deoxysedoheptulose-7-phosphate”. Also, in series [4] (metabolite studies), the “tissues that metabolize the probe” value was “metabolized by tissues in addition to the liver, including the spleen, muscles, heart, blood, thyroid, and kidneys”.
